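Step 1: Grow cells in 96-well plates. Step 2: Expose to compound for 48 hours at 5 concentrations. Step 3: Interpolate endpoints linearly; if unreached, use highest concentration. GI50 is the concentration that inhibits growth by half.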 Activity calls are given as the source filed them. Cut-off read from the data, not from the text of the source: active = GI50 up to about 1.1 µM and inactive = higher.
Tests used:
Experiment in all cases: NCI anticancer screen, dose series, 48 h
786-0 = system: 786-0
A498 = system: A498
A549 = system: A549
ACHN = system: ACHN
CAKI-1 = system: CAKI-1
CCRF-CEM = system: CCRF-CEM
COLO 205 = system: COLO 205
DLD-1 = system: DLD-1
DMS-114 = system: DMS-114
DMS-273 = system: DMS-273
EKVX = system: EKVX
HCT-116 = system: HCT-116
HCT-15 = system: HCT-15
HL-60 = system: HL-60
HOP-18 = system: HOP-18
HOP-62 = system: HOP-62
HOP-92 = system: HOP-92
HT-29 = system: HT-29
IGROV-1 = system: IGROV-1
K562 = system: K562
KM-20L2 = system: KM-20L2
KM12 = system: KM12
LOX IMVI = system: LOX IMVI
LXFL 529 = system: LXFL 529
M14 = system: M14
M19-MEL = system: M19-MEL
MOLT-4 = system: MOLT-4
Malme-3M = system: Malme-3M
NCI-H226 = system: NCI-H226
NCI-H23 = system: NCI-H23
NCI-H460 = system: NCI-H460
NCI-H522 = system: NCI-H522
OVCAR-3 = system: OVCAR-3
OVCAR-4 = system: OVCAR-4
OVCAR-5 = system: OVCAR-5
OVCAR-8 = system: OVCAR-8
RPMI-8226 = system: RPMI-8226
RXF 393 = system: RXF 393
SF-268 = system: SF-268
SF-295 = system: SF-295
SF-539 = system: SF-539
SK-MEL-28 = system: SK-MEL-28
SK-MEL-2 = system: SK-MEL-2
SK-MEL-5 = system: SK-MEL-5
SK-OV-3 = system: SK-OV-3
SN12C = system: SN12C
SNB-19 = system: SNB-19
SNB-75 = system: SNB-75
SNB-78 = system: SNB-78
SR = system: SR
SW-620 = system: SW-620
TK-10 = system: TK-10
U-251 = system: U-251
UACC-257 = system: UACC-257
UACC-62 = system: UACC-62
UO-31 = system: UO-31
XF498 = system: XF498
HCC 2998 = system: HCC 2998

COC(=O)c1c/c(=N\NC(=O)CC(=O)Nc2ccc(C)cc2)c2ccccc2o1
GI50 (786-0): > 100 µM (inactive) | GI50 (A498): > 100 µM (inactive) | GI50 (A549): > 100 µM (inactive) | GI50 (ACHN): > 100 µM (inactive) | GI50 (CAKI-1): > 100 µM (inactive) | GI50 (CCRF-CEM): > 100 µM (inactive) | GI50 (COLO 205): > 100 µM (inactive) | GI50 (DLD-1): > 100 µM (inactive) | GI50 (DMS-114): > 100 µM (inactive) | GI50 (DMS-273): > 100 µM (inactive) | GI50 (EKVX): > 100 µM (inactive) | GI50 (HCT-116): > 100 µM (inactive) | GI50 (HCT-15): > 100 µM | GI50 (HL-60): > 100 µM (inactive) | GI50 (HOP-18): > 100 µM (inactive) | GI50 (HOP-62): > 100 µM (inactive) | GI50 (HOP-92): > 100 µM (inactive) | GI50 (HT-29): > 100 µM (inactive) | GI50 (IGROV-1): > 100 µM (inactive) | GI50 (K562): > 100 µM (inactive) | GI50 (KM-20L2): > 100 µM (inactive) | GI50 (KM12): > 100 µM (inactive) | GI50 (LOX IMVI): > 100 µM (inactive) | GI50 (LXFL 529): > 100 µM (inactive) | GI50 (M14): > 100 µM (inactive) | GI50 (M19-MEL): > 100 µM (inactive) | GI50 (MOLT-4): > 100 µM (inactive) | GI50 (Malme-3M): > 100 µM (inactive) | GI50 (NCI-H226): > 100 µM (inactive) | GI50 (NCI-H23): > 100 µM (inactive) | GI50 (NCI-H460): > 100 µM (inactive) | GI50 (NCI-H522): > 100 µM (inactive) | GI50 (OVCAR-3): > 100 µM (inactive) | GI50 (OVCAR-4): > 100 µM (inactive) | GI50 (OVCAR-5): > 100 µM (inactive) | GI50 (OVCAR-8): > 100 µM (inactive) | GI50 (RPMI-8226): > 100 µM (inactive) | GI50 (RXF 393): > 100 µM (inactive) | GI50 (SF-268): > 100 µM (inactive) | GI50 (SF-295): > 100 µM (inactive) | GI50 (SF-539): > 100 µM (inactive) | GI50 (SK-MEL-28): > 100 µM (inactive) | GI50 (SK-MEL-2): > 100 µM (inactive) | GI50 (SK-MEL-5): > 100 µM (inactive) | GI50 (SK-OV-3): > 100 µM (inactive) | GI50 (SN12C): > 100 µM (inactive) | GI50 (SNB-19): > 100 µM (inactive) | GI50 (SNB-75): > 100 µM (inactive) | GI50 (SNB-78): > 100 µM (inactive) | GI50 (SR): > 100 µM (inactive) | GI50 (SW-620): > 100 µM (inactive) | GI50 (TK-10): > 100 µM (inactive) | GI50 (U-251): > 100 µM (inactive) | GI50 (UACC-257): > 100 µM (inactive) | GI50 (UACC-62): > 100 µM (inactive) | GI50 (UO-31): > 100 µM (inactive) | GI50 (XF498): > 100 µM (inactive)

COc1cccc(-c2cc(C(=O)Nc3ccc(Cl)cc3)nc(N)n2)c1
GI50 (786-0): 55 µM (inactive) | GI50 (A498): 61.9 µM (inactive) | GI50 (A549): 64.7 µM (inactive) | GI50 (ACHN): > 100 µM (inactive) | GI50 (CAKI-1): > 100 µM (inactive) | GI50 (CCRF-CEM): > 100 µM (inactive) | GI50 (COLO 205): 21.4 µM (inactive) | GI50 (DLD-1): 69.5 µM (inactive) | GI50 (DMS-114): 30.6 µM (inactive) | GI50 (DMS-273): 85.7 µM (inactive) | GI50 (EKVX): > 100 µM (inactive) | GI50 (HCC 2998): 87.7 µM (inactive) | GI50 (HCT-116): 42.9 µM (inactive) | GI50 (HCT-15): 41.5 µM | GI50 (HL-60): 32.7 µM (inactive) | GI50 (HOP-18): > 100 µM (inactive) | GI50 (HOP-62): > 100 µM (inactive) | GI50 (HOP-92): > 100 µM (inactive) | GI50 (HT-29): 45.5 µM (inactive) | GI50 (IGROV-1): 50.7 µM (inactive) | GI50 (K562): 40.5 µM (inactive) | GI50 (KM-20L2): 61.4 µM (inactive) | GI50 (KM12): 43.7 µM (inactive) | GI50 (LOX IMVI): 66.1 µM (inactive) | GI50 (LXFL 529): 52.7 µM (inactive) | GI50 (M14): 37.3 µM (inactive) | GI50 (M19-MEL): 45.7 µM (inactive) | GI50 (MOLT-4): 38.7 µM (inactive) | GI50 (Malme-3M): 57.7 µM (inactive) | GI50 (NCI-H226): > 100 µM (inactive) | GI50 (NCI-H23): 75 µM (inactive) | GI50 (NCI-H460): 36.8 µM (inactive) | GI50 (NCI-H522): 32.4 µM (inactive) | GI50 (OVCAR-3): 35.3 µM (inactive) | GI50 (OVCAR-4): > 100 µM (inactive) | GI50 (OVCAR-5): > 100 µM (inactive) | GI50 (OVCAR-8): 98.9 µM (inactive) | GI50 (RPMI-8226): 53.1 µM (inactive) | GI50 (RXF 393): 39.4 µM (inactive) | GI50 (SF-268): 65.2 µM (inactive) | GI50 (SF-295): 87.9 µM (inactive) | GI50 (SF-539): 40 µM (inactive) | GI50 (SK-MEL-28): 86.9 µM (inactive) | GI50 (SK-MEL-2): > 100 µM (inactive) | GI50 (SK-MEL-5): 55.6 µM (inactive) | GI50 (SK-OV-3): 61 µM (inactive) | GI50 (SN12C): 57.7 µM (inactive) | GI50 (SNB-19): 70.8 µM (inactive) | GI50 (SNB-75): 21.4 µM (inactive) | GI50 (SNB-78): > 100 µM (inactive) | GI50 (SR): 45.1 µM (inactive) | GI50 (SW-620): 36.7 µM (inactive) | GI50 (TK-10): > 100 µM (inactive) | GI50 (U-251): 60.8 µM (inactive) | GI50 (UACC-257): 81.1 µM (inactive) | GI50 (UACC-62): 42.6 µM (inactive) | GI50 (UO-31): > 100 µM (inactive) | GI50 (XF498): 93.8 µM (inactive)

From ChEMBL document CHEMBL1201862, “PubChem BioAssay data set” (2004)
